test: not given; conditions: dog

| Compound | AUC [µmol·min/L] |
| --- | --- |
| CCCCCC(CCC1C(O)CC2Cc3c(cccc3OCC(=O)O)CC21)OC(=O)C(C)C (stereo not shown) [LXVII] | 56.58 |
| CCCCCC(CCC1C(O)CC2Cc3c(cccc3OCC(=O)O)CC21)OP(=O)(O)O (stereo not shown) [VI] | 29.40 |
| CCCCCC(CCC1C(O)CC2Cc3c(cccc3OCC(=O)O)CC21)OC(N)=O (stereo not shown) [XLII] | 18.91 |
| CCCCCC(CCC1C(O)CC2Cc3c(cccc3OCC(=O)O)CC21)OC(=O)CO (stereo not shown) [XLIV] | 53.05 |

test: Stability in liver microsomes, human; conditions: not given

| Compound | Trep Concentration 0 min [µM] | Trep Concentration 10 min [µM] | Trep Concentration 20 min [µM] | Trep Concentration 30 min [µM] | Trep Concentration 60 min [µM] |
| --- | --- | --- | --- | --- | --- |
| CCCCCC(CCC1C(O)CC2Cc3c(cccc3OCC(=O)O)CC21)OC(=O)C(C)C (stereo not shown) [LXVII] | 1.02 | 0.877 | 0.755 | 0.664 | 0.393 |
| CCCCCC(CCC1C(O)CC2Cc3c(cccc3OCC(=O)O)CC21)OP(=O)(O)O (stereo not shown) [VI] | 0.02 | 0.038 | 0.038 | 0.03 | 0.061 |
| CCCCCC(CCC1C(O)CC2Cc3c(cccc3OCC(=O)O)CC21)OC(N)=O (stereo not shown) [XLII] | 0.361 | 0.297 | 0.293 | 0.273 | 0.219 |
| CCCCCC(CCC1C(O)CC2Cc3c(cccc3OCC(=O)O)CC21)OC(=O)CO (stereo not shown) [XLIV] | 0.624 | 0.632 | 0.549 | 0.52 | 0.307 |

same assay, conditions: human

| Compound | AUC [µmol·min/L] |
| --- | --- |
| CCCCCC(CCC1C(O)CC2Cc3c(cccc3OCC(=O)O)CC21)OC(=O)C(C)C (stereo not shown) [LXVII] | 40.60 |
| CCCCCC(CCC1C(O)CC2Cc3c(cccc3OCC(=O)O)CC21)OP(=O)(O)O (stereo not shown) [VI] | 2.38 |
| CCCCCC(CCC1C(O)CC2Cc3c(cccc3OCC(=O)O)CC21)OC(N)=O (stereo not shown) [XLII] | 16.45 |
| CCCCCC(CCC1C(O)CC2Cc3c(cccc3OCC(=O)O)CC21)OC(=O)CO (stereo not shown) [XLIV] | 29.94 |

test: Stability in human subcutaneous skin homogenate; conditions: not given

| Compound | Trep Concentration 0 min [µM] | Trep Concentration 30 min [µM] | Trep Concentration 60 min [µM] | Trep Concentration 120 min [µM] |
| --- | --- | --- | --- | --- |
| CCCCCC(CCC1C(O)CC2Cc3c(cccc3OCC(=O)O)CC21)OC(=O)C(C)C (stereo not shown) [LXVII] | 0 | 0.224 | 0.408 | 0.657 |
| CCCCCC(CCC1C(O)CC2Cc3c(cccc3OCC(=O)O)CC21)OP(=O)(O)O (stereo not shown) [VI] | 0 | 0.6 | 0.93 | 1.07 |
| CCCCCC(CCC1C(O)CC2Cc3c(cccc3OCC(=O)O)CC21)OC(N)=O (stereo not shown) [XLII] | 0 | 0 | 0 | 0 |
| CCCCCC(CCC1C(O)CC2Cc3c(cccc3OCC(=O)O)CC21)OC(=O)CO (stereo not shown) [XLIV] | 0 | 0.0277 | 0.0597 | 0.106 |

same assay, conditions: human

| Compound | AUC [µmol·min/L] |
| --- | --- |
| CCCCCC(CCC1C(O)CC2Cc3c(cccc3OCC(=O)O)CC21)OC(=O)C(C)C (stereo not shown) [LXVII] | 44.79 |
| CCCCCC(CCC1C(O)CC2Cc3c(cccc3OCC(=O)O)CC21)OP(=O)(O)O (stereo not shown) [VI] | 91.95 |
| CCCCCC(CCC1C(O)CC2Cc3c(cccc3OCC(=O)O)CC21)OC(N)=O (stereo not shown) [XLII] | 0.00 |
| CCCCCC(CCC1C(O)CC2Cc3c(cccc3OCC(=O)O)CC21)OC(=O)CO (stereo not shown) [XLIV] | 6.70 |

test: Stability in liver microsomes, dog; conditions: not given

| Compound | Trep Concentration 0 min [µM] | Trep Concentration 10 min [µM] | Trep Concentration 20 min [µM] | Trep Concentration 30 min [µM] | Trep Concentration 60 min [µM] |
| --- | --- | --- | --- | --- | --- |
| CCCCCC(CCC1C(O)CC2Cc3c(cccc3OCC(=O)O)CC21)OC(=O)C(C)C (stereo not shown) [LXVII] | 0.987 | 0.972 | 0.982 | 0.993 | 0.816 |
| CCCCCC(CCC1C(O)CC2Cc3c(cccc3OCC(=O)O)CC21)OP(=O)(O)O (stereo not shown) [VI] | 0.21 | 0.32 | 0.43 | 0.48 | 0.75 |
| CCCCCC(CCC1C(O)CC2Cc3c(cccc3OCC(=O)O)CC21)OC(N)=O (stereo not shown) [XLII] | 0.335 | 0.312 | 0.311 | 0.308 | 0.323 |
| CCCCCC(CCC1C(O)CC2Cc3c(cccc3OCC(=O)O)CC21)OC(=O)CO (stereo not shown) [XLIV] | 0.913 | 0.884 | 0.828 | 0.894 | 0.899 |

test: not given; conditions: rat

| Compound | AUC [µmol·min/L] |
| --- | --- |
| CCCCCC(CCC1C(O)CC2Cc3c(cccc3OCC(=O)O)CC21)OC(=O)C(C)C (stereo not shown) [LXVII] | 25.20 |
| CCCCCC(CCC1C(O)CC2Cc3c(cccc3OCC(=O)O)CC21)OP(=O)(O)O (stereo not shown) [VI] | 31.40 |
| CCCCCC(CCC1C(O)CC2Cc3c(cccc3OCC(=O)O)CC21)OC(N)=O (stereo not shown) [XLII] | 18.22 |
| CCCCCC(CCC1C(O)CC2Cc3c(cccc3OCC(=O)O)CC21)OC(=O)CO (stereo not shown) [XLIV] | 11.30 |

test: Stability in cryopreserved hepatocytes, rat; conditions: not given

| Compound | Trep Concentration (μM) 0 min [µM] | Trep Concentration (μM) 15 min [µM] | Trep Concentration (μM) 30 min [µM] | Trep Concentration (μM) 60 min [µM] | Trep Concentration (μM) 120 min [µM] |
| --- | --- | --- | --- | --- | --- |
| CCCCCC(CCC1C(O)CC2Cc3c(cccc3OCC(=O)O)CC21)OC(=O)C(C)C (stereo not shown) [LXVII] | 0 | 0.215 | 0.217 | 0.189 | 0.172 |
| CCCCCC(CCC1C(O)CC2Cc3c(cccc3OCC(=O)O)CC21)OP(=O)(O)O (stereo not shown) [VI] | 0.128 | 0.693 | 0.635 | 0.564 | 0.53 |
| CCCCCC(CCC1C(O)CC2Cc3c(cccc3OCC(=O)O)CC21)OC(N)=O (stereo not shown) [XLII] | 0.33 | 0.309 | 0.299 | 0.307 | 0.3 |
| CCCCCC(CCC1C(O)CC2Cc3c(cccc3OCC(=O)O)CC21)OC(=O)CO (stereo not shown) [XLIV] | 0.0352 | 0.186 | 0.307 | 0.393 | 0.514 |

same assay, conditions: rat

| Compound | AUC [µmol·min/L] |
| --- | --- |
| CCCCCC(CCC1C(O)CC2Cc3c(cccc3OCC(=O)O)CC21)OC(=O)C(C)C (stereo not shown) [LXVII] | 21.77 |
| CCCCCC(CCC1C(O)CC2Cc3c(cccc3OCC(=O)O)CC21)OP(=O)(O)O (stereo not shown) [VI] | 66.92 |
| CCCCCC(CCC1C(O)CC2Cc3c(cccc3OCC(=O)O)CC21)OC(N)=O (stereo not shown) [XLII] | 36.65 |
| CCCCCC(CCC1C(O)CC2Cc3c(cccc3OCC(=O)O)CC21)OC(=O)CO (stereo not shown) [XLIV] | 43.07 |

test: Stability in liver microsomes, rat; conditions: not given

| Compound | Trep Concentration 0 min [µM] | Trep Concentration 10 min [µM] | Trep Concentration 20 min [µM] | Trep Concentration 30 min [µM] | Trep Concentration 60 min [µM] |
| --- | --- | --- | --- | --- | --- |
| CCCCCC(CCC1C(O)CC2Cc3c(cccc3OCC(=O)O)CC21)OC(=O)C(C)C (stereo not shown) [LXVII] | 0.281 | 0.369 | 0.419 | 0.471 | 0.433 |
| CCCCCC(CCC1C(O)CC2Cc3c(cccc3OCC(=O)O)CC21)OP(=O)(O)O (stereo not shown) [VI] | 0.27 | 0.39 | 0.46 | 0.53 | 0.73 |
| CCCCCC(CCC1C(O)CC2Cc3c(cccc3OCC(=O)O)CC21)OC(N)=O (stereo not shown) [XLII] | 0.322 | 0.296 | 0.314 | 0.308 | 0.29 |
| CCCCCC(CCC1C(O)CC2Cc3c(cccc3OCC(=O)O)CC21)OC(=O)CO (stereo not shown) [XLIV] | 0.0772 | 0.114 | 0.157 | 0.197 | 0.284 |

test: Stability in cryopreserved hepatocytes, human; conditions: not given

| Compound | Trep Concentration (μM) 0 min [µM] | Trep Concentration (μM) 15 min [µM] | Trep Concentration (μM) 30 min [µM] | Trep Concentration (μM) 60 min [µM] | Trep Concentration (μM) 120 min [µM] |
| --- | --- | --- | --- | --- | --- |
| CCCCCC(CCC1C(O)CC2Cc3c(cccc3OCC(=O)O)CC21)OC(=O)C(C)C (stereo not shown) [LXVII] | 0.0174 | 0.631 | 0.572 | 0.506 | 0.446 |
| CCCCCC(CCC1C(O)CC2Cc3c(cccc3OCC(=O)O)CC21)OP(=O)(O)O (stereo not shown) [VI] | 0 | 0.223 | 0.365 | 0.466 | 0.540 |
| CCCCCC(CCC1C(O)CC2Cc3c(cccc3OCC(=O)O)CC21)OC(N)=O (stereo not shown) [XLII] | 0.297 | 0.274 | 0.298 | 0.275 | 0.217 |
| CCCCCC(CCC1C(O)CC2Cc3c(cccc3OCC(=O)O)CC21)OC(=O)CO (stereo not shown) [XLIV] | 0.0377 | 0.406 | 0.534 | 0.553 | 0.506 |

same assay, conditions: human

| Compound | AUC [µmol·min/L] |
| --- | --- |
| CCCCCC(CCC1C(O)CC2Cc3c(cccc3OCC(=O)O)CC21)OC(=O)C(C)C (stereo not shown) [LXVII] | 58.62 |
| CCCCCC(CCC1C(O)CC2Cc3c(cccc3OCC(=O)O)CC21)OP(=O)(O)O (stereo not shown) [VI] | 48.73 |
| CCCCCC(CCC1C(O)CC2Cc3c(cccc3OCC(=O)O)CC21)OC(N)=O (stereo not shown) [XLII] | 31.93 |
| CCCCCC(CCC1C(O)CC2Cc3c(cccc3OCC(=O)O)CC21)OC(=O)CO (stereo not shown) [XLIV] | 58.45 |

test: Stability in cryopreserved hepatocytes, dog; conditions: not given

| Compound | Trep Concentration (μM) 0 min [µM] | Trep Concentration (μM) 15 min [µM] | Trep Concentration (μM) 30 min [µM] | Trep Concentration (μM) 60 min [µM] | Trep Concentration (μM) 120 min [µM] |
| --- | --- | --- | --- | --- | --- |
| CCCCCC(CCC1C(O)CC2Cc3c(cccc3OCC(=O)O)CC21)OC(=O)C(C)C (stereo not shown) [LXVII] | 0.09 | 0.616 | 0.554 | 0.459 | 0.42 |
| CCCCCC(CCC1C(O)CC2Cc3c(cccc3OCC(=O)O)CC21)OP(=O)(O)O (stereo not shown) [VI] | 0.0124 |  | 0.609 | 0.533 | 0.548 |
| CCCCCC(CCC1C(O)CC2Cc3c(cccc3OCC(=O)O)CC21)OC(N)=O (stereo not shown) [XLII] | 0.296 | 0.242 | 0.197 | 0.155 | 0.137 |
| CCCCCC(CCC1C(O)CC2Cc3c(cccc3OCC(=O)O)CC21)OC(=O)CO (stereo not shown) [XLIV] | 0.0501 | 0.587 | 0.545 | 0.475 | 0.404 |

same assay, conditions: dog

| Compound | AUC [µmol·min/L] |
| --- | --- |
| CCCCCC(CCC1C(O)CC2Cc3c(cccc3OCC(=O)O)CC21)OC(=O)C(C)C (stereo not shown) [LXVII] | 55.64 |
| CCCCCC(CCC1C(O)CC2Cc3c(cccc3OCC(=O)O)CC21)OP(=O)(O)O (stereo not shown) [VI] | 62.94 |
| CCCCCC(CCC1C(O)CC2Cc3c(cccc3OCC(=O)O)CC21)OC(N)=O (stereo not shown) [XLII] | 21.37 |
| CCCCCC(CCC1C(O)CC2Cc3c(cccc3OCC(=O)O)CC21)OC(=O)CO (stereo not shown) [XLIV] | 54.94 |

Reference: US12491170B2, “Stable treprostinil prodrugs” (United Therapeutics Corporation, priority 2020, dated 2025)
